Laboratory results published in patent US20250051301A1, “MUTANT IDH1 AND IDH2 INHIBITOR AND APPLICATION THEREOF” (Betta Pharmaceuticals Co., Ltd, priority 2022, published 2025).

Columns and labels:
IDH1^R132H [1] = target: T1, IDH1^R132H (Homo sapiens, UniProt O75874, R132H); assay: Enzyme activity inhibition assay (fluorescence-based), IDH1 R132H; format: biochemical; conditions: numeric values
Protocol: The inhibitory ability of the compounds on the enzyme activities of IDH1^R132H and IDH2^R140Qwas detected and expressed as the half inhibitory concentration (IC50) value. AG-881 was used as a positive control compound. In this experiment, compounds were screened on enzymes IDH1^R132H and IDH2^R140Q using a fluorescence-based method (initial concentration: 10000 nM, 3-fold dilution, 10 concentrations, and single-well detection). • (1) Preparation of 1×assay buffer. • (2) Preparation of compound concentration gradient: the compounds to be tested were assayed at an initial concentration of 10000 nM, with 3-fold dilution and 10 concentrations, and diluted into 200-fold the final concentration in 100% DMSO solution in a 384-well plate. • (3) 250 nL of DMSO and 250 nL of diluted compounds were transferred to a reaction plate with Echo 550. • (4) IDH2^R140Q enzyme detection: 25 μL of an IDH2^R140Q enzyme solution was added, and the mixture was incubated for 60 minutes; then 25 μL of a substrate solution was added, and the mixture was incubated for 150 minutes; then 25 μL of a detection buffer was added, and the mixture was shaken for 1 minute and incubated for 60 minutes; and finally, Synergy 2, Ex544/Em590 cutoff 590 was used for reading. • (5) IDH1^R132H enzyme detection: 40 μL of a mixture solution of an IDH1^R132H enzyme at the 1.25-fold final concentration and NADPH was added, and the mixture was incubated for 60 minutes; then 10 μL of a substrate solution at the 5-fold final concentration was added, and the mixture was incubated for 90 minutes; then 25 μL of a detection buffer at the 3-fold final concentration was added, and the mixture was shaken for 1 minute. and finally, Synergy 2, Ex544/Em590 cutoff 590 was used for reading. • (8) Inhibition rate calculation, formula: % Inhibition=(RFU_sample−RFU_min)/(RFU_max−RFU_min)*100%, wherein RFU-sample represents the fluorescence intensity of a sample; RFU-min represents the average value of negative control wells and represents the fluorescence intensity with an enzyme; and RFU-max represents the average value of positive control wells and represents the fluorescence intensity without an enzyme. The curve fitting was performed using Graphpad Prism software to obtain IC50 values, and the test results were as shown in table 2.

IDH1^R132H [2] = target: T1, IDH1^R132H; assay: 2-HG assay in cells (U87 cell line stably transfected with IDH1-R132H); format: cell-based; conditions: 72 hours, numeric values, read-out: 2-HG in medium (IC50, nM) (IDH1^R132H)
Protocol: The compounds were detected for the inhibition of 2-HG production in the U87 cell line stably transfected with IDH1-R132H and the culture supernatant of TF-1 cells stably transfected with IDH2-R140Q. • (1) The cultured cells were collected by centrifugation, then suspended in a cell culture solution, counted, and seeded in a 96-well cell culture plate at 160 μL of cell suspension/well (20000 cells/well for U87-IDH1-R132H; 10000 cells/well for TF-1-IDH2-R140Q). • (2) A 96-well plate dilution was taken, and the compounds to be tested were diluted in a gradient manner in DMSO and a cell culture solution; and then 40 μL of the gradient-diluted compounds to be tested were added to the 96-well plate on which cells have been plated. […] Finally, the plate was cultured in a 37° C. incubator containing 5% CO2. • (3) After the compounds were incubated with the cells for 72 hours, the cell culture plate was taken out and centrifuged at 1500 rpm for 5 minutes, and then 100 μL of the medium supernatant was aspirated for 2-HG detection. • (4) 2-HG detection: the cell supernatant was diluted with purified water, 30 μL of the diluted sample was taken into a 1.5 ml centrifuge tube, and 200 μL of the internal standard solution was added. The mixture was mixed uniformly by vortex and centrifuged at 3200 rpm at 4° C. for 15 minutes. 100 μL of the supernatant solution was diluted with water at a 1:1 ratio and then detected by LC-MS. Analyte Peak Area was used to represent the 2-HG levels. • (5) Inhibition rate calculation, formula: % Inhibition=(1−Analyte Peak Area_sample/Analyte Peak Area_max)*100%, wherein Analyte Peak Area_sample represents the Analyte Peak Area of the sample to which the compound was added; Analyte Peak Area_max represents the average value of Analyte Peak Area of positive control wells (representing the absence of the compound). The curve fitting was performed using Graphpad Prism software to obtain IC50 values, and the test results were as shown in table 2.

T1 sequence (O75874 whole entry R132H): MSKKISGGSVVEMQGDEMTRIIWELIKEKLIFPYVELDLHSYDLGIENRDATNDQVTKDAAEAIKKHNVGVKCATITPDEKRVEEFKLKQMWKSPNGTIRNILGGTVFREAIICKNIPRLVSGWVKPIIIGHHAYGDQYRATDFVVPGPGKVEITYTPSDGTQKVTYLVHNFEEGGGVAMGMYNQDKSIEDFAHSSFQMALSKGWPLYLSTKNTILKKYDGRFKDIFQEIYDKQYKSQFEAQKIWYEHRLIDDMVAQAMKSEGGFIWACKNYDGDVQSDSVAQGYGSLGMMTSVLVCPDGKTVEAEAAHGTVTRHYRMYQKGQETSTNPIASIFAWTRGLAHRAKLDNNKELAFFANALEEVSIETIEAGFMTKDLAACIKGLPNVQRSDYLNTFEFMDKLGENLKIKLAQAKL

- IC50 (IDH1^R132H [1]): 8 nM
- IC50 (IDH1^R132H [2]): 0.5 nM
Structure (SMILES): C[C@@H](Nc1nc(N[C@H](C)C(F)(F)F)nc(-c2cc(F)c(N)c(Cl)n2)n1)C(F)(F)F [Example 5, 6-(5-amino-6-chloro-4-fluoropyridin-2-yl)-N^2,N^4-bis((R)-1,1,1-trifluoropropyl-2-yl)-1,3,5-triazine-2,4-diamine]
